# Entries after “also recorded” stand apart in the source; their conditions may differ. Like-named read-outs stand apart in the source and are kept apart here.
# Tests used:
# [1] = system: CD133+ cancer stem cells in tumour cell lines; assay: CD133 content by flow cytometry in tumour cell lines after 48 hours of in-vitro treatment; type: cell-based, human
# Protocol: As a first step the content of cancer stem cells (measured as “CD 133-content”) in the whole population of tumour cells was measured by flow cytometry (FIGS. 1A-1C).
# As a first step the content of cancer stem cells (measured as “CD 133-content”) within the entire tumour cell population was measured by flow cytometry (FIGS. 10A-10C).
# [2] = system: CD133+ pancreatic cancer stem cells (L3.6pl cells); assay: CD133 content by flow cytometry in L3.6pl pancreatic cancer cells; type: cell-based, human; conditions: for CD133 content of L3.6pl cells: Example 4.2, inhibitor alone or with Gemcitabine
# Protocol: In this experiment, potentially effective substances for the targeted elimination of CD133^+ pancreatic cancer stem cells (CSC) were screened by means of flow cytometry following 48 hours of therapy. […] As a Gemcitabine concentration of 100 ng/ml was the lowest concentration capable of achieving a strong relative enrichment for CD133^+ cells through depletion of CD133^− cells, this concentration was chosen for subsequent experiments.
# (§1) Human pancreatic cancer cell line. The highly metastatic human pancreatic cell line L3.6pl was maintained in DMEM medium (Invitrogen, Karlsruhe, Germany) with 12% Fetal Calf Serum (Biochrom, Berlin, Germany), Glutamax (Invitrogen), non-essential amino acids, and vitamins (all from PAN, Aidenbach, Germany) (Hermann et al., 2007, supra). Cultures were kept no longer than 4 weeks after recovery from frozen stocks. CSC spheres were cultured in DMEM-F12 supplemented with B27 (Gibco, Karlsruhe, Germany) and FGF-2 (PeproTech EC, London, United Kingdom) (Hermann et al., 2007, supra).
# Cytometry. Pancreatic CSC were identified by CD133/1-APC or CD133-PE (Miltenyi, Bergisch-Gladbach, Germany) (Hermann et al., 2007, supra). Side population experiments were performed as described by Goodell et al. (1996) (see Goodell et al., 1996, J Exp Med 183, 1797-1806) and cells were identified by exclusion of the vital dye Hoechst 33342. To detect activation of the PI3K/Akt/mTOR pathway by means of the phosphorylation status of the s6 ribosomal protein (s6rp), cells cultivated with standard medium were stained with a rabbit anti-phospho-S6 ribosomal protein antibody (Cell Signalling Technology, Danvers, Mass.).
# (§2) In vitro treatment of pancreatic cancer cells. […] For the evaluation of the in vivo tumorigenicity, […] L3.6pl cells were pretreated with the respective regimen and the remaining viable cells were orthotopically implanted into the pancreas of nude mice and evaluated on day 35. For the systemic infusion assay, cells were labelled with the Qtracker 800 labelling kit (Invitrogen) according to the manufacturer's instructions, and 5×10^5 cells were injected intravenously into mice. After 4 weeks, explanted lungs were scanned for metastases with a near-infrared imaging platform (Odyssey, Li-cor, Lincoln, Nebr.). Positive signals were verified by histology (H&E staining).
# (§3) Using SB431542, a specific inhibitor of the receptors for Nodal and Activin, ALK-4 and -7 respectively, it was investigated whether the content of the CD133(+) population is affected by inhibition of Activin/Nodal signaling. As mutations affecting the TGF-superfamily pathway are very common in pancreatic neoplasms, pancreatic cell lines harboring different mutations in this pathway were screened (Table 1).
# [3] = system: L3.6pl pancreatic cancer cells; assay: Tumorigenicity after in vitro pre-treatment and orthotopic implantation; type: in vivo, mice
# Protocol: After 96 hours of pretreatment, the remaining viable cells were orthotopically implanted into the pancreas of mice, which received no further treatment in vivo.
# Cultivated pancreatic cancer cells were exposed to either Gemcitabine alone representing clinical standard therapy, SB431542 alone, or a combination of Gemcitabine and SB431542 in the above given respective concentrations. After 96 hours of pretreatment, the remaining viable cells were orthotopically implanted into the pancreas of mice, which received no further treatment in vivo.
# A prerequisite of CSC is their ability to form tumours in secondary recipients. Due to the limited number of cancer (stem) cells that can be obtained from primary tissues, it is virtually impossible to reproducibly perform in vivo treatment experiments with fresh patient-derived cells. Therefore, all subsequent in vivo experiments were performed with the established L3.6pl pancreatic cancer cells. The design of the experiment is illustrated in FIG. 20A. […] After 4 days of pretreatment, the surviving cells were orthotopically implanted into the pancreas, which received no further in vivo treatment. Tumorigenicity was first determined by PET scans on day 30 (FIGS. 20B, 20C; left panel) and by final macroscopic and microscopic histological evaluation on day 35 (FIGS. 20B, 20C; right panel).
# Animals and Orthotopic Implantation of Tumour Cells. Single-cell suspensions were orthotopically implanted into the pancreas of female NMRI nu/nu mice (Janvier, Le Genest-Saint-Isle, France) (Hermann et al., 2007, supra). Size and weight of the pancreatic tumours were monitored.
# as §2
# pancreatic CSC spheres = assay: CSC-enriched tumour sphere assay; type: cell-based, human; conditions: ultra low adhesion 6-well plates
# Protocol: First, pancreatic CSC were clonally expanded as CSC-enriched spheres (FIGS. 18C1-18C5). Floating spheres were treated in ultra low adhesion 6-well plates. After completion of the treatment, five randomly selected high-power fields were analyzed.
# as §1
# CSC population = conditions: fraction of original population remaining; cited from earlier work
# MiaPaca cells = assay: CD133 content by flow cytometry in MiaPaCa cells; type: cell-based, human
# Excerpt: as §3, with “1). […] Without being bound thereto, this indicates a Nodal/[…] mediated pathway being independent from SMAD4 as an underlying mechanism.” for “1).”
# BxPC3 cells = assay: CD133 content by flow cytometry in BxPC3 cells; type: cell-based, human
# Excerpt: as §3, with “1). […] Without being bound thereto, this indicates a Nodal/[…] mediated pathway being independent from SMAD4 as an underlying mechanism.” for “1).”
# CD133-positive cells = assay: Cell cycle / apoptosis of CD133-positive cells (BrDU flow kit); type: cell-based
# Excerpt: As the precise fate of CD133-positive cells during treatment with antagonists of Activin or Nodal was to be assessed, the cell cycle of these cells was investigated using a BrDU flow kit (see FIGS. 26A-26G).
# Alk4/7 = assay: Smad2 phosphorylation after recombinant Nodal; type: cell-based
# [4] = system: primary human pancreatic cancer cells; assay: Sphere formation in primary human pancreatic cancer cells; type: cell-based
# [5] = system: primary human pancreatic cancer tissue; assay: In vivo treatment of implanted patient pancreatic tumor tissue with gemcitabine plus SB431542; design: species or system mice; conditions: mouse, in vivo
# Protocol: FIG. 33: In vivo treatment with the Alk4/7 inhibitor SB431542. This illustrates Nodal/Activin inhibition to eliminate primary human pancreatic CSC in vivo. Tumor tissue from patient with pancreatic cancer was implanted into immunocompromised mice. Treatment was started on day 7 after implantation. Mice were randomized to gemcitabine alone or gemcitabine plus SB431542. Tumor growth was assessed on day 28.
# CD133 positive CSC = assay: CD133 positive population after extracellular antagonists of Nodal and Activin A; type: cell-based
# Excerpt: Furthermore, cells in culture were subjected to extracellular antagonists of Nodal (Lefty) and Activin A (Follistatin) to see whether both components are functionally relevant for the maintenance of the CD133 positive CSC compartment.
# [6] = system: sphere derived cells (185s); assay: Soft agar colony formation assay; type: cell-based; conditions: soft agar assay 14d
# Excerpt: FIGS. 31A-D: show a Gain of function by Nodal stimulation—Sphere derived cells (185s) bear a higher colony forming capacity as compared to adherent cells (185) as evidence for an enrichment in cancer stem cells (in a soft agar assay 14d).
# [7] = 5 μM SB431542, 100 ng/ml Gemcitabine, ALK5 inhibitor SB-505124
molecule,measurement,setting,value
"CC1=C2C[C@H]3[C@@H](CC=C4C[C@@H](O)CC[C@@]43C)[C@@H]2CC[C@]12O[C@@H]1C[C@H](C)CN[C@H]1[C@H]2C [Cyclopamine, 11-deoxojervine]",content of cancer stem cells (CD 133-content),"[1]; 100 ng/ml Gemcitabine, 100 ng/ml Rapamycin, 10 μM Cyclopamine, separately or triple combination","None of the investigated molecules (Gemcitabine, Rapamycin and Cyclopamine) was capable of significantly reducing"
same,CD133+ cell content,"[2]; 48 hours of therapy, Gemcitabine 100 ng/ml","moderate, albeit significant decrease"
same,CD133 content,"[2]; inhibitor alone, CUR199691 10 μM",55%
same,tumour take rate / tumorigenicity,"[3]; 4 days of pretreatment, PET day 30, histology day 35",neither Cyclopamine nor Rapamycin monotherapy significantly affected tumour take rates
same,tumour spheres / CD133+ cells in CSC-enriched spheres,pancreatic CSC spheres,reduction of tumour spheres
same,reduction of the original CSC population (aldehyde dehydrogenase marker),CSC population,⅓
NC(=O)c1ccc(-c2nc(-c3ccc4c(c3)OCO4)c(-c3ccccn3)[nH]2)cc1 [SB431542],content of cancer stem cells (CD 133-content),[1]; [7],significant reduction
same,CD133 content 24 hours after withdrawal of therapy,[2]; 24 hours after withdrawal,already started to approach control level
same,CD133 content 48 h after withdrawal of therapy,[2]; 48 h after withdrawal,enrichment for CD133 compared to base level
same,CD133 content of L3.6pl cells,[2],decrease; also recorded: drastically reduced
same,tumorigenicity after in vitro pre-treatment,"[3]; 96 hours pretreatment, 100 ng/ml Gemcitabine, 5 μM SB431542",close to no effect; also recorded: did not affect the tumorigenicity
same,CD133(+) sub-population of MiaPaca cells,MiaPaca cells,decrease
same,CD133 content of BxPC3 cells,BxPC3 cells,no response
same,induction of apoptosis in CD133-positive cells,CD133-positive cells,modest induction of apoptosis
same,phosphorylation of Smad2 (pSmad2),Alk4/7,abrogated this increase in pSmad2
same,cell viability (dapi staining),[4],did not affect cell viability
same,sphere formation,[4],in a dose-dependent manner reduced sphere formation
same,body weight,[5],lack of change
same,severe side effects,[5],did not result in severe side effects
same,white blood cell counts (WBC),[5],lack of change
Cc1cccc(-c2[nH]c(C(C)(C)C)nc2-c2ccc3c(c2)OCO3)n1 [SB505124],content of cancer stem cells (CD 133-content),[1]; [7],did not lead to significant reduction
same,CD133 content of L3.6pl cells,[2],neither alone nor in combination with Gemcitabine an effect
"Folistatin: single chain glycoprotein, inhibitor of Activin signaling (protein, UniProt P19883 30-344, looked up) Follistatin: GNCWLRQAKNGRCQVLYKTELSKEECCSTGRLSTSWTEEDVNDNTLFKWMIFNGGAPNCIPCKETCENVDCGPGKKCRMNKKNKPRCVCAPDCSNITWKGPVCGLDGKTYRNECALLKARCKEQPELEVQYQGRCKKTCRDVFCPGSSTCVVDQTNNAYCVTCNRICPEPASSEQYLCGNDGVTYSSACHLRKATCLLGRSIGLAYEGKCIKAKSCEDIQCTGGKKCLWDFKVGRGRCSLCDELCPDSKSDEPVCASDNATYASECAMKEAACSSGVLLEVKHSGSCNSISEDTEEEEEDEDQDYSFPISSILEW",CD133 positive CSC population,CD133 positive CSC,reduction of CD133 positive CSC that was similar to the reduction seen for Lefty
same,CD133 positive CSC population,CD133 positive CSC; listed as folistatin,reduction of CD133 positive cancer stem cells
"recombinant Nodal: recombinant Nodal, member of the TGF-β superfamily, used as stimulus (protein, UniProt Q96S42 238-347, looked up) Nodal homolog: HHLPDRSQLCRKVKFQVDFNLIGWGSWIIYPKQYNAYRCEGECPNPVGEEFHPTNHAYIQSLLKRYQPHRVPSTCCAPVKTKPLSMLYVDNGRVLLDHHKDMIVEECGCL",phosphorylation of Smad2 (pSmad2),Alk4/7,increased phosphorylation of downstream Smad2
same,colony formation,[6],further increase in colony formation

# — patent publication US20110151020A1, “ACTIVE SUBSTANCE COMBINATION WITH GEMCITABINE FOR THE TREATMENT OF EPITHELIAL CANCER” (priority 2008, published 2011)
